Results from patent US9499519B2, “Fused pyrimidine compounds and use thereof” (Medivation Technologies, Inc., priority 2012, dated 2016).

Legend:
[1] = test system: Akt phosphorylation induced by IGF-1R; test: Western blot analysis of Akt phosphorylation induced by IGF-1 in HT-29 cells; type: cell-based, Human; conditions: for Levels of phosphorylated AKT in treated cells (pAKT/actin): HT-29 cells, IGF-1; for p-AKT relative to levels with 0.1 nM compound: Table B2 lower part; for Normalized phosphorylated AKT (relative to actin) levels relative to 0.1 nM compound treatment: Table B2 upper part
Procedure, shortened: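 HT-29 cells grown 24 h in DME/F12 with 10% FBS, serum-starved 24 h, then exposed 2 h to compound at 0.1, 1, 10 or 100; controls received DMSO or 10 ng/mL IGF-1. Lysate soluble fractions quantified by BCA before western blotting for phospho-Akt.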

[2] = target: T1, IGF-1R (Homo sapiens, UniProt P08069); test: In vitro IGF-1R enzymatic assay (ADP-Glo kinase assay); type: biochemical; conditions: activated IGF-1R; for inhibition at 1 µM: in duplicate, read-out: inhibition of binding
T1 construct: purchased Millipore 14-802
Experimental: (§1) IC50 values of the compounds of the invention against IGF-1R and IR were measured in vitro using an ADP-Glo kinase assay Kit (Promega). […] Kinase reactions in both assays were conducted at 30° C. for 20 min with increasing concentrations of compounds of the invention.
Additional compounds of the invention were screened against activated IGF-1R.

[3] = target: T2, IR (Homo sapiens, UniProt P06213); test: In vitro IR enzymatic assay (ADP-Glo kinase assay); type: biochemical; conditions: activated IR, 30 nM
T2 construct: purchased Millipore 14-803
Experimental: as §1
Additional compounds of the invention were screened against activated IR.

[4] = target: T2, IR; test: In vitro IR enzymatic assay (ADP-Glo kinase assay); type: biochemical; conditions: activated IR, in duplicate, read-out: inhibition of binding
[5] = target: Trk C (Homo sapiens, UniProt Q16288); test: HotSpot kinase assay: Trk C; type: biochemical; conditions: 100 nM compound, HotSpot; for inhibition at 0.1 µM: read-out: % Enzyme Inhibition @ 100 nM Trk C
Experimental: (§2) Each compound was tested at a concentration of 0.1 μM in single duplicate mode against the 3 kinases. Compounds were prepared as 10 mM stock solutions in DMSO prior to use in the assay. […] IC50 values and curve fits were obtained using Prism (GraphPad Software).
(§3) The screening was performed using the “HotSpot” assay platform. The assay measures the conversion of a peptide substrate to ^33P-labelled phosphorylated product. Briefly, specific kinase/substrate pairs along with required cofactors were prepared in reaction buffer. Specifically, the substrate was prepared in reaction buffer (20 mM Hepes, pH 7.5; 10 mM MgCl2; 1 mM EGTA; 0.02% Brij35; 0.02 mg/mL BSA; 0.1 mM Na3VO4; 2 mM DTT; 1% DMSO), followed by delivery of any required cofactor to the resulting substrate solution. The corresponding kinase was delivered into the substrate solution and the reaction mixture was mixed gently. Compound was delivered into the reaction mixture, followed 15-20 minutes later by addition of a mixture of ATP (Sigma, St. Louis Mo.) and ^33P ATP (specific activity 0.01 μCi/μL final; Perkin Elmer, Waltham, Mass.) to a final concentration of 10 μM-30 μM to initiate the reaction. […] The percent of enzyme inhibition was calculated based on the percent of remaining kinase activity.
as §2, with “Kinase assays were performed using additional compounds against a panel of 4 kinases: AXL; c-Met; c-Mer; and Trk C. Each” for “Each”, “[…]” for “μM”, “4” for “3”

[6] = target: Trk B (Homo sapiens, UniProt Q16620); test: HotSpot kinase assay: Trk B; type: biochemical; conditions: 100 nM compound; for inhibition at 0.1 µM: read-out: % Enzyme Inhibition @ 100 nM Trk B
Experimental: as §2, §3

[7] = target: Trk A (Homo sapiens, UniProt P04629); test: HotSpot kinase assay: Trk A; type: biochemical; conditions: 100 nM compound; for inhibition at 0.1 µM: read-out: % Enzyme Inhibition @ 100 nM Trk A
Experimental: as §2, with “Kinase assays were performed using additional compounds against a panel of 3 kinases: Trk A; Trk B; and Trk C. Each” for “Each”, “Software). […]” for “Software).”
The screening was performed using the “HotSpot” assay platform. The assay measures the conversion of a peptide substrate to ^33P-labelled phosphorylated product. Briefly, specific kinase/substrate pairs along with required cofactors were prepared in reaction buffer. Specifically, the substrate was prepared in reaction buffer (20 mM Hepes, pH 7.5; 10 mM MgCl2; 1 mM EGTA; 0.02% Brij35; 0.02 mg/mL BSA; 0.1 mM Na3VO4; 2 mM DTT; 1% DMSO), followed by delivery of any required cofactor to the resulting substrate solution. The corresponding kinase was delivered into the substrate solution and the reaction mixture was mixed gently. Compound was delivered into the reaction mixture, followed 15-20 minutes later by addition of a mixture of ATP (Sigma, St. Louis Mo.) and ^33P ATP (specific activity 0.01 μCi/μL final; Perkin Elmer, Waltham, Mass.) to a final concentration of 10 μM-30 μM to initiate the reaction. Reactions were carried out at room temperature for 120 minutes, followed by spotting of the reactions onto P81 ion exchange filter paper (Whatman #3698-915; Whatman Inc., Piscataway, N.J.). Unbound phosphate was removed by extensive washing of filters in 0.75% phosphoric acid. […] The percent of enzyme inhibition was calculated based on the percent of remaining kinase activity.

Sequence of Trk A (P04629 33-796): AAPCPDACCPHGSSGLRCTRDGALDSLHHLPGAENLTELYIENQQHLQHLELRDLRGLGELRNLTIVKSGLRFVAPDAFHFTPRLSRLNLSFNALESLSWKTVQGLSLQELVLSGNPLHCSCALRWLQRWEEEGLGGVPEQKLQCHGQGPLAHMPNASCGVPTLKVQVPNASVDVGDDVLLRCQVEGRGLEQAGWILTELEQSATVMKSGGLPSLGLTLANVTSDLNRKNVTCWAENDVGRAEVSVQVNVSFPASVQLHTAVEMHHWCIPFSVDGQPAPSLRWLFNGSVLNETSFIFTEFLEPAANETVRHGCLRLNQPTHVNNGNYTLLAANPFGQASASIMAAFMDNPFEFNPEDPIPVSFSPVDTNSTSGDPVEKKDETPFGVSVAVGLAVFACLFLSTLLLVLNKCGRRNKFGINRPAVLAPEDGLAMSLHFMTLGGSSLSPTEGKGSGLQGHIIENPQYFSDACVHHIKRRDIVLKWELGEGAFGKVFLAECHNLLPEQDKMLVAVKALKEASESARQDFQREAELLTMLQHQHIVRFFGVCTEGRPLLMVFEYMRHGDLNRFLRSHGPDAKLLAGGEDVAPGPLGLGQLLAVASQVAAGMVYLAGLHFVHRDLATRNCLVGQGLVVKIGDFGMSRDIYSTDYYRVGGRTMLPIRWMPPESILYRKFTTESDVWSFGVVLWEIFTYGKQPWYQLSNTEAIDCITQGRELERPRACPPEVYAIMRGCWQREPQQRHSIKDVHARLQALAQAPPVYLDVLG
Sequence of Trk B (Q16620 32-822): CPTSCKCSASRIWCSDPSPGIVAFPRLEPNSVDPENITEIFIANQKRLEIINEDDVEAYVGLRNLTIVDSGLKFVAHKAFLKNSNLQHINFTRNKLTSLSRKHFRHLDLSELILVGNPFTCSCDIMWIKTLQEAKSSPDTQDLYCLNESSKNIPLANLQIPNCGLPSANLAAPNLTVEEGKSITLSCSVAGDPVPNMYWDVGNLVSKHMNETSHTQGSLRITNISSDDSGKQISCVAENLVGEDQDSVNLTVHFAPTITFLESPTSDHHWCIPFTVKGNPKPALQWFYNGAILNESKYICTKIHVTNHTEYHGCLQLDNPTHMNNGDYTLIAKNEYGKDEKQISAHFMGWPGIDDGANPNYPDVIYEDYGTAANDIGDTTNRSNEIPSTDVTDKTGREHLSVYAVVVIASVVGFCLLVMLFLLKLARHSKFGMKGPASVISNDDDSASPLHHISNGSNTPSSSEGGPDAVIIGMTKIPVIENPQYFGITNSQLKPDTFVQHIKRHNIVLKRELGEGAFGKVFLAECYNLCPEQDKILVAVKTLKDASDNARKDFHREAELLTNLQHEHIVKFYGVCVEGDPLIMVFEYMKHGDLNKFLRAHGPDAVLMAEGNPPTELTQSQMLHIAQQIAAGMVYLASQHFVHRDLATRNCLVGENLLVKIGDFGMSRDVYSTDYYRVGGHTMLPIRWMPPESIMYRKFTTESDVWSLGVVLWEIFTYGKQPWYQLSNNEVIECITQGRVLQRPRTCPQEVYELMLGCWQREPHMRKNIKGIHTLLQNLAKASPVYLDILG
Sequence of Trk C (Q16288 32-839): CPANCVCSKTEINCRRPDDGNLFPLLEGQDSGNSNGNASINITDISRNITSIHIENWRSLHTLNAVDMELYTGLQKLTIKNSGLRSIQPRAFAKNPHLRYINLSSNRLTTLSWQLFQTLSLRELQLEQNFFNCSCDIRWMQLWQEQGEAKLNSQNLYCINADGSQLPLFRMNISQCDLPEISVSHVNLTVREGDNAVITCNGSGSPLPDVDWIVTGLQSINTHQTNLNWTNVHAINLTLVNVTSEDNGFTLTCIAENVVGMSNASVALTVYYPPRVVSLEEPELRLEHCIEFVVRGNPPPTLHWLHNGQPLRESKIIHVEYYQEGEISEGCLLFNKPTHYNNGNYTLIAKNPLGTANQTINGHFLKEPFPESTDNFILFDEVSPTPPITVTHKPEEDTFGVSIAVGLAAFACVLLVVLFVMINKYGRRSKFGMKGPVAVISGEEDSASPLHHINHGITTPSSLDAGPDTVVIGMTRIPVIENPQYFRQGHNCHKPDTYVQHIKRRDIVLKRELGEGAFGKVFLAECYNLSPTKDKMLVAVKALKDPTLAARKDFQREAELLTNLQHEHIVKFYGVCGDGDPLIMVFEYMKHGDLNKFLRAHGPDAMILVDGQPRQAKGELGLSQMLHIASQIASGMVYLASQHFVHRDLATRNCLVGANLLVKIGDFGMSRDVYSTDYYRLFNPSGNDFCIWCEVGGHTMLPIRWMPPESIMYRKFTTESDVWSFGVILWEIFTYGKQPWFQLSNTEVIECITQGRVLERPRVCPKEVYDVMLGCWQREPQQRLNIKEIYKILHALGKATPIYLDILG
T1 sequence (P08069 31-1367): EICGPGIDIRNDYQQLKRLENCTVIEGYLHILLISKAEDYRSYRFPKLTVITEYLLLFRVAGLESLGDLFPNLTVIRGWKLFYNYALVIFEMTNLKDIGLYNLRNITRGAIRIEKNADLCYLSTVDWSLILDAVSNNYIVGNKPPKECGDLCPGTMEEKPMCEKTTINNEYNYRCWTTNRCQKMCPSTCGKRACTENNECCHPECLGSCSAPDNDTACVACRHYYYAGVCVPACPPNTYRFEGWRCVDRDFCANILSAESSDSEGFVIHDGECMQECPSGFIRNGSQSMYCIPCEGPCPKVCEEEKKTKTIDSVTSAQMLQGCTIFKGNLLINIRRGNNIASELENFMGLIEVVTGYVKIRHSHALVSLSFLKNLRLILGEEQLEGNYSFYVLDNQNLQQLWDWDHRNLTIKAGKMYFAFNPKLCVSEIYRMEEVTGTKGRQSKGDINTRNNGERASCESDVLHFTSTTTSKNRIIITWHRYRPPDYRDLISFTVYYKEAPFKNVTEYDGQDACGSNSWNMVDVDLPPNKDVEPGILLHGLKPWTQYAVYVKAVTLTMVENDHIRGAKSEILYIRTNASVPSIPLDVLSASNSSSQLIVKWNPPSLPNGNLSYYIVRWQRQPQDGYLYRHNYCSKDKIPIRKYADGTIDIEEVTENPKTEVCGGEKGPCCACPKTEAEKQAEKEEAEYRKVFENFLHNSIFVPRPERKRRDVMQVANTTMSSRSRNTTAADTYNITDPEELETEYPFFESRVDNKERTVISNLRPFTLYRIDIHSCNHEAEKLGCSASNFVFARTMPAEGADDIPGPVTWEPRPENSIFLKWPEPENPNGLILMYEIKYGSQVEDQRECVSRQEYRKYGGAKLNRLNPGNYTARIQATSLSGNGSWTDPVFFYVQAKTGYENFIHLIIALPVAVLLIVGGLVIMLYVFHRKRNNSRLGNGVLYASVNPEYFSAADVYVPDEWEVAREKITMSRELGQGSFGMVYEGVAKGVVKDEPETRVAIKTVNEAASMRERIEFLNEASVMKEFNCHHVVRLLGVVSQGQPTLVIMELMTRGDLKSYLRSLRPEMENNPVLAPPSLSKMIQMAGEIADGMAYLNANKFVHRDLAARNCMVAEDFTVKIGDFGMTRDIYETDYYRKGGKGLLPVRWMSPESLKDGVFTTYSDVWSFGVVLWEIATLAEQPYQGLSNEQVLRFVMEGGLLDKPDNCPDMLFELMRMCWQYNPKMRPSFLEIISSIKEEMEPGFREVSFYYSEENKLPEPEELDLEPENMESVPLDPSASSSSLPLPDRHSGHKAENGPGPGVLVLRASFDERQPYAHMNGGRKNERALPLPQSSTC
T2 sequence (P06213 28-1382): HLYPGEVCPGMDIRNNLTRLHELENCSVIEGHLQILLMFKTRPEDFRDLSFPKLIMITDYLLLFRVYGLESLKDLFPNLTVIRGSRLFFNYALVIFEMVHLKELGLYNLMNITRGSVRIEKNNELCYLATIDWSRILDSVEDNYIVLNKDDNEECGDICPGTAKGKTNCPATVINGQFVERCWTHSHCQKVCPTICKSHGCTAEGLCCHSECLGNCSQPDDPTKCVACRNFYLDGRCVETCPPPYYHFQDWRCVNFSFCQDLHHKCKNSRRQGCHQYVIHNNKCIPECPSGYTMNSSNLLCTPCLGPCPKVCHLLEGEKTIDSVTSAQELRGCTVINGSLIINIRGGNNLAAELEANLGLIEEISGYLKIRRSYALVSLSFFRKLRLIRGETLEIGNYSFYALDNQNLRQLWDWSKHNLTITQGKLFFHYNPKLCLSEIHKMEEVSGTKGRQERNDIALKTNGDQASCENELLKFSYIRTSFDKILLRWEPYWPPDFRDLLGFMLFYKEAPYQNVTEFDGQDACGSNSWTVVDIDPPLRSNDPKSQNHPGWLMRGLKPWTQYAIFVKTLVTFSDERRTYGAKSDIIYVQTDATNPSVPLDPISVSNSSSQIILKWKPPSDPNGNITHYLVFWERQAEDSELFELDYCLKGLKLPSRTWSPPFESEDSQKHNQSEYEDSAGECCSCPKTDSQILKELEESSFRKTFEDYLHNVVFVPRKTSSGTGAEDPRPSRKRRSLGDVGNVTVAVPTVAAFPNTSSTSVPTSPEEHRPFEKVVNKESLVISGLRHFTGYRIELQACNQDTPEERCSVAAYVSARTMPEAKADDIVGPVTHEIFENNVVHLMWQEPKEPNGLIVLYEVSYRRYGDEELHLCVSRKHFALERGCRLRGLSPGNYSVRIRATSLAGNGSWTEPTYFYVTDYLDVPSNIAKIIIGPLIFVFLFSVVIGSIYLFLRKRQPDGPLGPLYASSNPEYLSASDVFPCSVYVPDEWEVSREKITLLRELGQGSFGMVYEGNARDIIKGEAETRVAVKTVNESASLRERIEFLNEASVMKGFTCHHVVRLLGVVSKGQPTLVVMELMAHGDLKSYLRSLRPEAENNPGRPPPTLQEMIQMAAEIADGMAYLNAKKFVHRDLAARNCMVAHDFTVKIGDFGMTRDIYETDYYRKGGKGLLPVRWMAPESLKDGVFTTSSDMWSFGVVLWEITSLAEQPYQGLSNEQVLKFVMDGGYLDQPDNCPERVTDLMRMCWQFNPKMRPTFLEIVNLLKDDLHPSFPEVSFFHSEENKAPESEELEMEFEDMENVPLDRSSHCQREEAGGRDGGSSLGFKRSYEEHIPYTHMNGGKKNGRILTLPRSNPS

O=C(Nc1ccc(F)nc1)C1CCCCN1c1nc2c(c(Nc3cc(C4CCCC4)[nH]n3)n1)CCC2 (single isomer, unassigned) [Compound 17b, 1-(4-(5-cyclopentyl-1H-pyrazol-3-ylamino)-6,7-dihydro-5H-cyclopenta[d]pyrimidin-2-yl)-N-(6-fluoropyridin-3-yl)piperidine-2-carboxamide]
Levels of phosphorylated AKT in treated cells (pAKT/actin) ([1]; 0.1 nM compound): 0.83
p-AKT relative to levels with 0.1 nM compound ([1]; 0.1 nM): 1.0
Normalized phosphorylated AKT (relative to actin) levels relative to 0.1 nM compound treatment ([1]; 0.1 nM): 1.0
Levels of phosphorylated AKT in treated cells (pAKT/actin) ([1]; 1 nM compound): 0.99
p-AKT relative to levels with 0.1 nM compound ([1]; 1 nM): 1.2
Normalized phosphorylated AKT (relative to actin) levels relative to 0.1 nM compound treatment ([1]; 1 nM): 1.2
Levels of phosphorylated AKT in treated cells (pAKT/actin) ([1]; 10 nM compound): 0.95
p-AKT relative to levels with 0.1 nM compound ([1]; 10 nM): 1.1
Normalized phosphorylated AKT (relative to actin) levels relative to 0.1 nM compound treatment ([1]; 10 nM): 1.1
Levels of phosphorylated AKT in treated cells (pAKT/actin) ([1]; 100 nM compound): 1.08
p-AKT relative to levels with 0.1 nM compound ([1]; 100 nM): 1.3
Normalized phosphorylated AKT (relative to actin) levels relative to 0.1 nM compound treatment ([1]; 100 nM): 1.3
% Inh @ 30 nM (N1) ([2]; 30 nM, N1, 0.03 µM): 21%
% Inh @ 30 nM (N2) ([2]; 30 nM, N2, 0.03 µM): 23%
% Inh @ 30 nM Avg ([2]; 30 nM, average): 22%
% Inh @ 30 nM (N1) ([3]; N1): 2%
% Inh @ 30 nM (N2) ([3]; N2, 0.03 µM): 10%
% Inh @ 30 nM Avg ([3]; average): 6%

CC(C)c1cc(Nc2nc(N3CC(O)CC3C(=O)N3CCCCC3)nc3c2CCC3)n[nH]1 (stereo not shown) [Compound 107a, (4-hydroxy-1-(4-(5-isopropyl-1H-pyrazol-3-ylamino)-6,7-dihydro-5H-cyclopenta[d]pyrimidin-2-yl)pyrrolidin-2-yl)(piperidin-1-yl)methanone]
inhibition at 1 µM [4]: ≤ 40%
% Enzyme Inhibition @ 100 nM Trk C [5]: +++ (High (60% or higher inhibition, +++))
% Enzyme Inhibition @ 100 nM Trk B [6]: ++ (Medium (40 to 59% inhibition, ++))
inhibition at 1 µM [2]: < 35%
% Enzyme Inhibition @ 100 nM Trk A [7]: + (Low (39% or lower inhibition, +))

CC(C)c1cc(Nc2nc(N3CC(O)CC3C(=O)N3CCCCC3)nc3c2CCC3)n[nH]1 (stereo not shown) [Compound 107b, (4-hydroxy-1-(4-(5-isopropyl-1H-pyrazol-3-ylamino)-6,7-dihydro-5H-cyclopenta[d]pyrimidin-2-yl)pyrrolidin-2-yl)(piperidin-1-yl)methanone]
% Enzyme Inhibition @ 100 nM Trk C [5]: + (Low (39% or lower inhibition, +))
inhibition at 0.1 µM [6]: < 39%
inhibition at 0.1 µM [7]: < 39%

O=C(C1CC(O)CN1c1nc2c(c(Nc3cc(C4CCCC4)[nH]n3)n1)CCC2)N1CCCCC1 (stereo not shown) [Compound 108a, (1-(4-(5-cyclopentyl-1H-pyrazol-3-ylamino)-6,7-dihydro-5H-cyclopenta[d]pyrimidin-2-yl)-4-hydroxypyrrolidin-2-yl)(piperidin-1-yl)methanone]
inhibition at 1 µM [4]: ≤ 40%
% Enzyme Inhibition @ 100 nM Trk C [5]: +++ (High (60% or higher inhibition, +++))
% Enzyme Inhibition @ 100 nM Trk B [6]: +++ (High (60% or higher inhibition, +++))
inhibition at 1 µM [2]: < 35%
% Enzyme Inhibition @ 100 nM Trk A [7]: + (Low (39% or lower inhibition, +))

O=C(C1CC(O)CN1c1nc2c(c(Nc3cc(C4CCCC4)[nH]n3)n1)CCC2)N1CCCCC1 (stereo not shown) [Compound 108b, (1-(4-(5-cyclopentyl-1H-pyrazol-3-ylamino)-6,7-dihydro-5H-cyclopenta[d]pyrimidin-2-yl)-4-hydroxypyrrolidin-2-yl)(piperidin-1-yl)methanone]
inhibition at 0.1 µM [5]: > 60%
inhibition at 0.1 µM [6]: 40 to 59%
inhibition at 0.1 µM [7]: 40 to 59%

CC(C)c1cc(Nc2nc(N3CC(O)CC3C(=O)N(C)C)nc3c2CCC3)n[nH]1 (stereo not shown) [Compound 109a, 4-hydroxy-1-(4-(5-isopropyl-1H-pyrazol-3-ylamino)-6,7-dihydro-5H-cyclopenta[d]pyrimidin-2-yl)-N,N-dimethylpyrrolidine-2-carboxamide]
inhibition at 1 µM [4]: ≤ 40%
inhibition at 0.1 µM [5]: < 39%
inhibition at 0.1 µM [6]: < 39%
inhibition at 1 µM [2]: < 35%
inhibition at 0.1 µM [7]: < 39%

CN(C)C(=O)C1CC(O)CN1c1nc2c(c(Nc3cc(C4CCCC4)[nH]n3)n1)CCC2 (stereo not shown) [Compound 110a, 1-(4-(5-cyclopentyl-1H-pyrazol-3-ylamino)-6,7-dihydro-5H-cyclopenta[d]pyrimidin-2-yl)-4-hydroxy-N,N-dimethylpyrrolidine-2-carboxamide]
inhibition at 1 µM [4]: ≤ 40%
% Enzyme Inhibition @ 100 nM Trk C [5]: +++ (High (60% or higher inhibition, +++))
% Enzyme Inhibition @ 100 nM Trk B [6]: ++ (Medium (40 to 59% inhibition, ++))
inhibition at 1 µM [2]: < 35%
% Enzyme Inhibition @ 100 nM Trk A [7]: + (Low (39% or lower inhibition, +))

CN(C)C(=O)C1CC(O)CN1c1nc2c(c(Nc3cc(C4CCCC4)[nH]n3)n1)CCC2 (stereo not shown) [Compound 110b, 1-(4-(5-cyclopentyl-1H-pyrazol-3-ylamino)-6,7-dihydro-5H-cyclopenta[d]pyrimidin-2-yl)-4-hydroxy-N,N-dimethylpyrrolidine-2-carboxamide]
inhibition at 0.1 µM [5]: 40 to 59%
inhibition at 0.1 µM [6]: < 39%
inhibition at 0.1 µM [7]: < 39%

O=C(C1CCCN1c1nc2c(c(Nc3cc(C4CCCC4)[nH]n3)n1)CCC2)N1CCCCC1 (stereo not shown) [Compound 111a, (1-(4-(5-cyclopentyl-1H-pyrazol-3-ylamino)-6,7-dihydro-5H-cyclopenta[d]pyrimidin-2-yl)pyrrolidin-2-yl)(piperidin-1-yl)methanone]
inhibition at 1 µM [4]: ≤ 40%
inhibition at 0.1 µM [5]: > 60%
inhibition at 0.1 µM [6]: > 60%
inhibition at 1 µM [2]: < 35%
inhibition at 0.1 µM [7]: 40 to 59%

O=C(C1CCCN1c1nc2c(c(Nc3cc(C4CCCCC4)[nH]n3)n1)CCC2)N1CCCCC1 (stereo not shown) [Compound 113b, (1-(4-(5-cyclohexyl-1H-pyrazol-3-ylamino)-6,7-dihydro-5H-cyclopenta[d]pyrimidin-2-yl)pyrrolidin-2-yl)(piperidin-1-yl)methanone]
inhibition at 0.1 µM [5]: > 60%
% Enzyme Inhibition @ 100 nM Trk B [6]: +++ (High (60% or higher inhibition, +++))
inhibition at 0.1 µM [7]: 40 to 59%

CN(C)C(=O)C1CCCN1c1nc2c(c(Nc3cc(C4CCCCC4)[nH]n3)n1)CCC2 (stereo not shown) [Compound 114b, 1-(4-(5-cyclohexyl-1H-pyrazol-3-ylamino)-6,7-dihydro-5H-cyclopenta[d]pyrimidin-2-yl)-N,N-dimethylpyrrolidine-2-carboxamide]
inhibition at 0.1 µM [5]: > 60%
inhibition at 0.1 µM [6]: > 60%
inhibition at 0.1 µM [7]: < 39%
